One test has as its system Ba/F3-TEL-TYK2 cells. Kind of test: Proliferation of Ba/F3-TEL-TYK2 cells (CellTiter-Glo). The test is classed as cell-based. The settings on record: 72 hours, read-out: Half maximal inhibitory concentration IC50 for cells Ba/F3-TEL-TYK2. An excerpt: Adenosine triphosphate (ATP) serves as a universal energy carrier in various life processes, representing the smallest unit of energy storage and transfer. The CellTiter-Glo™ Luminescent Cell Viability Assay Kit utilizes luciferase as a detection agent. During the luminescent process, luciferase requires the participation of ATP. By adding CellTiter-Glo™ reagent to the cell culture medium and measuring the luminescence, the light signal was directly proportional to the amount of ATP in the system, and ATP was positively correlated with the number of viable cells. Therefore, cell proliferation can be detected by measuring ATP content using the CellTiter-Glo kit. In this test, the cell lines used were Ba/F3-FL-TYK2-E957D and Ba/F3-TEL-TYK2. Ba/F3-FL-TYK2-E957D cells can stably express the exogenously introduced human TYK2-E957D gene, and the TYK2-E957D gene sequence contains both JH1 and JH2 domains. On the other hand, Ba/F3-TEL-TYK2 cells can stably express the exogenously introduced human TEL-TYK2 gene, and the TEL-TYK2 gene sequence contains only the JH1 domain of TYK2.
The cell lines were cultured in an incubator at 37° C. with 5% CO2. Regular passaging was performed, and cells in the logarithmic growth phase were selected for plating.
• a) The test compounds were prepared into a 10 mM solution with DMSO, and then diluted to 0.3 or 1 mM with DMSO. • b) Preparation of 1000× compound storage plate (tube): The compounds were 3-fold serially diluted from the highest concentration to the lowest concentration, creating 9 different concentrations. • c) Preparation of 20× compound working solution: 49 μL of cell culture medium was added to a flat-bottomed 96-well transparent drug plate. From the 1000× compound storage plate, 1 μL of the compound was pipetted into the cell culture medium in the 96-well transparent drug plate. In the solvent control, 1 μL of DMSO was added. After the compound or DMSO was added, the mixture was homogenized using a multi-channel pipette.
• a) Cells were stained with trypan blue and viable cells were counted to ensure a cell viability of 90% or more. • b) 95 μL of cell suspension (2000 cells/well) was added to each well of the compound assay cell plate, and cell-free culture medium containing 0.1% DMSO was added to the Min control wells. • c) Administration in the compound assay cell plate: 5 μL of 20× compound working solution was added to the cell culture plate. 5 μL of DMSO-cell culture medium mixture was added to the Max control wells. The final concentration of DMSO was 0.1%. • d) The culture plate was then incubated in an incubator at 37° C. with 5% CO2 for 72 hours.
The following steps were conducted in accordance with the instructions of the Promega CellTiter-Glo Luminescent Cell Viability Assay Kit (Promega-G7573). • a) CellTiter-Glo buffer was thawed and brought to room temperature. • b) CellTiter-Glo substrate was also brought to room temperature. • c) CellTiter-Glo buffer was added to a bottle of CellTiter-Glo substrate to dissolve the substrate, thereby preparing CellTiter-Glo working solution. • d) The mixture was slowly vortexed and shaken to be fully dissolved. • e) The cell culture plate was removed and allowed to equilibrate to room temperature for 10 minutes. • f) 50 μL (equal to half the volume of cell culture medium in each well) of CellTiter-Glo working solution was added to each well. • g) The culture plate was shaken on an orbital shaker for 2 minutes to induce cell lysis. • h) The plate was then left at room temperature for 10 minutes to stabilize the luminescent signal. • i) The luminescent signal was detected using a SpectraMax Paradigm plate reader.
Data analysis was conducted using GraphPad Prism 5.0 software. Nonlinear S-curve regression was employed to fit the data and generate dose-response curves. From these curves, the IC50 values were calculated.
In general terms: In ATP-based viability assays light output follows the ATP content of the culture.

Test [1] has as its system JAK1/2 signaling pathway (IL-6/pSTAT1). Kind of test: IL-6-stimulated pSTAT1 in human PBMC (flow cytometry). The test is classed as cell-based. The settings on record: CD4-positive cells. The protocol: The purpose of this experiment was to detect the inhibitory effect of the compounds on cytokine-activated JAK-STAT signaling pathways in human peripheral blood mononuclear cells (PBMC).
• a) PBMCs frozen in liquid nitrogen were thawed in a 37° C. water bath, and culture medium was added. The mixture was then centrifuged at 320 g for 3 minutes. • b) Cells were resuspended in culture medium, counted, and the cell concentration was adjusted to 5×10^5 cells/mL with culture medium. Subsequently, the cell suspension was inoculated into […] 96-well round-bottom plates, with 200 μL per well. The plates were incubated at 37° C. with 5% CO2 for 90 minutes. • c) Different concentrations of the test compound (starting at 2 μM, 5-fold serial dilution, a total of 8 concentrations) were added, followed by incubation at 37° C. with 5% CO2 for 30 minutes. • d) IL-6 (final concentration at 20 ng/mL) was added to the first round-bottom plate and incubated at 37° C. with 5% CO2 for 15 minutes. • e) IFNα (final concentration at 1000 U/mL) was added to the second round-bottom plate and incubated at 37° C. with 5% CO2 for 15 minutes. • f) IL-2 (final concentration at 4 ng/mL) was added to the third round-bottom plate and incubated at 37° C. with 5% CO2 for 15 minutes. • g) GM-CSF (final concentration at […]) was added to the fourth round-bottom plate and incubated at 37° C. with 5% CO2 for 15 minutes. • h) Cells were centrifuged at 320 g for 3 minutes, and each well was washed once with 200 μL of staining solution. • i) 50 μL of staining solution containing human CD33 antibody was added to each well of the GM-CSF-stimulated culture plate, and 50 μL of staining solution containing CD4 antibody was added to the remaining three culture plates. The staining was performed at 4° C. for 30 minutes. The cells were washed twice with the staining solution. • j) 100 μL of fixation buffer was added to each well, and the cells were fixed at 4° C. for 15 minutes. The cells were washed once with the staining solution. • k) 100 μL of permeabilization buffer was added to each well, and the cells were permeabilized at 4° C. for 20 minutes. The cells were washed twice with the staining solution. • l) 50 μL of staining solution containing human pSTAT1 antibody was added to each well of the IL-6 and IFN-α-stimulated culture plates, and 50 μL of staining solution containing human pSTAT5 antibody was added to each well of the IL-2 and GM-CSF-stimulated culture plates. The staining was performed at room temperature for 15 minutes. The cells were washed twice with the staining solution. • m) The cells were resuspended in 150 μL of staining solution. • n) The fluorescence intensity of pSTAT1 (stimulated by IL-6 and IFN-α) or pSTAT5 (stimulated by IL-2) in CD4-positive cells was detected using flow cytometer. The fluorescence intensity of pSTAT5 (stimulated by GM-CSF) in CD33-positive cells was also detected.
Data analysis was performed using Flowjo software to determine the IC50 of the compounds.
A general note: In flow cytometry, cells or beads pass a laser one at a time.

Data on seven compounds can be found in patent US20240335462A1, “SULFUR/PHOSPHORUS-CONTAINING ARYL COMPOUND AND APPLICATION THEREOF” (MEDSHINE DISCOVERY INC., priority 2021, published 2024).

For `CNC(=O)c1nnc(NC(=O)C2CC2)cc1Nc1cccc(-c2ccc(S(=N)(=O)C(C)C)cn2)c1OC` (single isomer, unassigned) [WX-012A], the results for the IC50 (in the test with Ba/F3-TEL-TYK2 cells; in test [1]) were greater than 10 µM and 52.4 nM, respectively.

Consider `CNC(=O)c1nnc(NC(=O)C2CC2)cc1Nc1cccc(-c2ccc(P(=O)(C3CC3)C3CC3)cn2)c1OC` [WX-021], for which the results for the IC50 (with Ba/F3-TEL-TYK2 cells; in test [1]) were greater than 10 µM and 63.4 nM, respectively.

Regarding `CNC(=O)c1nnc(NC(=O)C2CC2)cc1Nc1cccc(-c2ccc(S(=N)(=O)C(C)C)cn2)c1OC` (single isomer, unassigned) [WX-012B], the figures for the IC50 (with Ba/F3-TEL-TYK2 cells; in test [1]) were greater than 10 µM and 32.5 nM, respectively.

In the case of `CNC(=O)c1cnc(NC(=O)C2CC2)cc1Nc1cccc(-c2ccc(S(=O)(=O)C(C)C)cn2)c1OC.Cl` [Hydrochloride of WX-020], the IC50 in the test with Ba/F3-TEL-TYK2 cells was greater than 10 µM; in test [1], 164 nM.

On to `CNC(=O)c1nnc(NC(=O)C2CC2)cc1Nc1cccc(-c2ncc(S(=N)(=O)C(C)C)cn2)c1OC` (single isomer, unassigned) [WX-011B], for which the IC50 in the test with Ba/F3-TEL-TYK2 cells is greater than 10 µM; in test [1], 72.5 nM.

`CNC(=O)c1cnc(NC(=O)C2CC2)cc1Nc1cccc(-c2ncc(S(=O)(=O)C(C)C)cn2)c1OC` [WX-019]: the IC50 was greater than 10 µM in the test with Ba/F3-TEL-TYK2 cells and 99.7 nM in test [1].

For `CNC(=O)c1nnc(NC(=O)C2CC2)cc1Nc1cccc(-c2ncc(S(=N)(=O)C(C)C)cn2)c1OC` (single isomer, unassigned) [WX-011A], the IC50 in the test on Ba/F3-TEL-TYK2 cells is greater than 10 µM; in test [1] it was 87 nM.
